PubChem BioAssay AID1117351
The source made the active and inactive calls. How the calls were made is not given here.

These compounds were tested on HeLa cells, 4N DNA content increase (assay: rise of 4N DNA cells, HeLa – IC50, dose response (AID 1117351)).
CCCCCCCCCCCC(=O)[O][Sn]([CH2]CCC)([CH2]CCC)[O]C(=O)CCCCCCCCCCC was tested, and the IC50 was > 10 µM (inactive). CCCCCCCCCCCCCC[N+](C)(C)C was tested, and the IC50 was > 10 µM (inactive). With C[n+]1c2cc(N)ccc2cc2ccc(N)cc21 (tested in a mixture with another compound) the IC50 was > 10 µM (inactive). With Cc1ccc([N+](=O)[O-])[c]2c1[O][Hg]2 the IC50 was > 10 µM (inactive).
